Source: patent US20210361539A1, “NONAQUEOUS COMPOSITION FOR EXTERNAL USE ON SKIN AND METHOD FOR PRODUCING THE SAME” (CHANEL PARFUMS BEAUTE, priority 2017, published 2021)

Experiment: Particle size measurement by dynamic light scattering
Assay type: physicochemical
Conditions: steps (a) to (e) without palmitoyl-L-carnitine chloride
Protocol: The particle size of particles contained in the nonaqueous composition for external use on the skin immediately after preparation was measured by the dynamic light scattering method.
Specifically, the measurement was performed on the number mode using a nanoparticle analysis system (Zetasizer Nano ZSP model manufactured by Malvern Instruments Ltd.).

For sucrose erucic acid ester, the “Particle size of composition containing particles of the surfactant alone” value was “about 2.5 nm”.
